Reference: the supplement of paper PMC13380429

Key:
Conditions in all cases: 72 h
[1] = system: U2OS; assay: cell viability relative to DMSO; higher = less toxic
[2] = system: Caco-2; assay: as above
[3] = system: HepG2; assay: as above
[4] = system: Calu-3; assay: as above
[5] = system: Vero E6; assay: as above
[6] = system: U2OS; assay: drug sensitivity score (DSS) for viability; higher = more toxic; extreme values may be limits of the assay
[7] = system: Caco-2; assay: as above
[8] = system: HepG2; assay: as above
[9] = system: Calu-3; assay: as above
[10] = system: Vero E6; assay: as above
[11] = system: U2OS; assay: relative viability EC50 (midpoint between 100% and the lowest measured viability); higher = less toxic
[12] = system: Caco-2; assay: as above
[13] = system: HepG2; assay: as above
[14] = system: Calu-3; assay: as above
[15] = system: Vero E6; assay: as above

CC[C@H](C)[C@H](N)C(=O)O [isoleucine]
cell viability ([1]; 1 nM): 101%
cell viability ([1]; 10 nM): 96.8%
cell viability ([1]; 100 nM): 96.3%
cell viability ([1]; 1000 nM): 107%
cell viability ([1]; 10000 nM): 106%
cell viability ([2]; 1 nM): 88.4%
cell viability ([2]; 10 nM): 100%
cell viability ([2]; 100 nM): 99.3%
cell viability ([2]; 1000 nM): 94.5%
cell viability ([2]; 10000 nM): 108%
cell viability ([3]; 1 nM): 99.5%
cell viability ([3]; 10 nM): 95.6%
cell viability ([3]; 100 nM): 104%
cell viability ([3]; 1000 nM): 90.8%
cell viability ([3]; 10000 nM): 97.4%
cell viability ([4]; 1 nM): 101%
cell viability ([4]; 10 nM): 89.1%
cell viability ([4]; 100 nM): 91.1%
cell viability ([4]; 1000 nM): 99.9%
cell viability ([4]; 10000 nM): 103%
cell viability ([5]; 1 nM): 92.1%
cell viability ([5]; 10 nM): 97.3%
cell viability ([5]; 100 nM): 96.4%
cell viability ([5]; 1000 nM): 95.4%
cell viability ([5]; 10000 nM): 106%
drug sensitivity score [6]: 0
drug sensitivity score [7]: 0
drug sensitivity score [8]: 0
drug sensitivity score [9]: 0
drug sensitivity score [10]: 0
relative viability EC50 [11]: > 10 µM
relative viability EC50 [12]: > 10 µM
relative viability EC50 [13]: > 10 µM
relative viability EC50 [14]: > 10 µM
relative viability EC50 [15]: > 10 µM

O=C(O)c1cc(O)c2c3nc4ccccc4oc-3cc(=O)c2n1 [pirenoxine]
cell viability ([1]; 1 nM): 106%
cell viability ([1]; 10 nM): 99.7%
cell viability ([1]; 100 nM): 102%
cell viability ([1]; 1000 nM): 103%
cell viability ([1]; 10000 nM): 103%
cell viability ([2]; 1 nM): 99.6%
cell viability ([2]; 10 nM): 103%
cell viability ([2]; 100 nM): 108%
cell viability ([2]; 1000 nM): 83.6%
cell viability ([2]; 10000 nM): 81.7%
cell viability ([3]; 1 nM): 103%
cell viability ([3]; 10 nM): 113%
cell viability ([3]; 100 nM): 89.5%
cell viability ([3]; 1000 nM): 99.6%
cell viability ([3]; 10000 nM): 92.6%
cell viability ([4]; 1 nM): 108%
cell viability ([4]; 10 nM): 109%
cell viability ([4]; 100 nM): 102%
cell viability ([4]; 1000 nM): 106%
cell viability ([4]; 10000 nM): 99.4%
cell viability ([5]; 1 nM): 105%
cell viability ([5]; 10 nM): 107%
cell viability ([5]; 100 nM): 96.6%
cell viability ([5]; 1000 nM): 101%
cell viability ([5]; 10000 nM): 95%
drug sensitivity score [6]: 0
drug sensitivity score [7]: 1.9
drug sensitivity score [8]: 0
drug sensitivity score [9]: 0
drug sensitivity score [10]: 0
relative viability EC50 [11]: > 10 µM
relative viability EC50 [12]: > 10 µM
relative viability EC50 [13]: > 10 µM
relative viability EC50 [14]: > 10 µM
relative viability EC50 [15]: > 10 µM

CCCN[C@@H]1CCc2c(OC)cccc2[C@@H]1C [AJ76-(+)]
cell viability ([1]; 1 nM): 102%
cell viability ([1]; 10 nM): 105%
cell viability ([1]; 100 nM): 95.7%
cell viability ([1]; 1000 nM): 95.9%
cell viability ([1]; 10000 nM): 98.8%
cell viability ([2]; 1 nM): 104%
cell viability ([2]; 10 nM): 97.8%
cell viability ([2]; 100 nM): 96.4%
cell viability ([2]; 1000 nM): 86.8%
cell viability ([2]; 10000 nM): 96.7%
cell viability ([3]; 1 nM): 88.5%
cell viability ([3]; 10 nM): 100%
cell viability ([3]; 100 nM): 103%
cell viability ([3]; 1000 nM): 103%
cell viability ([3]; 10000 nM): 94%
cell viability ([4]; 1 nM): 100%
cell viability ([4]; 10 nM): 95.9%
cell viability ([4]; 100 nM): 96.8%
cell viability ([4]; 1000 nM): 96%
cell viability ([4]; 10000 nM): 114%
cell viability ([5]; 1 nM): 97.8%
cell viability ([5]; 10 nM): 104%
cell viability ([5]; 100 nM): 96.6%
cell viability ([5]; 1000 nM): 99.6%
cell viability ([5]; 10000 nM): 91.3%
drug sensitivity score [6]: 0
drug sensitivity score [7]: 0
drug sensitivity score [8]: 0
drug sensitivity score [9]: 0
drug sensitivity score [10]: 0
relative viability EC50 [11]: > 10 µM
relative viability EC50 [12]: > 10 µM
relative viability EC50 [13]: > 10 µM
relative viability EC50 [14]: > 10 µM
relative viability EC50 [15]: > 10 µM

O=C(O)c1ccccc1Nc1cccc(OCc2ccc3ccccc3n2)c1 [SR-2640]
cell viability ([1]; 1 nM): 105%
cell viability ([1]; 10 nM): 98.1%
cell viability ([1]; 100 nM): 103%
cell viability ([1]; 1000 nM): 99.2%
cell viability ([1]; 10000 nM): 101%
cell viability ([2]; 1 nM): 105%
cell viability ([2]; 10 nM): 103%
cell viability ([2]; 100 nM): 107%
cell viability ([2]; 1000 nM): 96.8%
cell viability ([2]; 10000 nM): 91.7%
cell viability ([3]; 1 nM): 87.9%
cell viability ([3]; 10 nM): 96.3%
cell viability ([3]; 100 nM): 96.9%
cell viability ([3]; 1000 nM): 101%
cell viability ([3]; 10000 nM): 105%
cell viability ([4]; 1 nM): 97.6%
cell viability ([4]; 10 nM): 94.6%
cell viability ([4]; 100 nM): 103%
cell viability ([4]; 1000 nM): 98.2%
cell viability ([4]; 10000 nM): 98.4%
cell viability ([5]; 1 nM): 92%
cell viability ([5]; 10 nM): 98.9%
cell viability ([5]; 100 nM): 92.9%
cell viability ([5]; 1000 nM): 95%
cell viability ([5]; 10000 nM): 86.9%
drug sensitivity score [6]: 0
drug sensitivity score [7]: 0
drug sensitivity score [8]: 0
drug sensitivity score [9]: 0
drug sensitivity score [10]: 0
relative viability EC50 [11]: > 10 µM
relative viability EC50 [12]: > 10 µM
relative viability EC50 [13]: > 10 µM
relative viability EC50 [14]: > 10 µM
relative viability EC50 [15]: > 10 µM

CCOC(=O)/C=C(C)/C=C/C=C(C)/C=C/c1c(C)cc(OC)c(C)c1C [etretinate]
cell viability ([1]; 1 nM): 96%
cell viability ([1]; 10 nM): 101%
cell viability ([1]; 100 nM): 98.1%
cell viability ([1]; 1000 nM): 100%
cell viability ([1]; 10000 nM): 99.5%
cell viability ([2]; 1 nM): 100%
cell viability ([2]; 10 nM): 107%
cell viability ([2]; 100 nM): 92.2%
cell viability ([2]; 1000 nM): 111%
cell viability ([2]; 10000 nM): 95.3%
cell viability ([3]; 1 nM): 94.2%
cell viability ([3]; 10 nM): 99.4%
cell viability ([3]; 100 nM): 103%
cell viability ([3]; 1000 nM): 102%
cell viability ([3]; 10000 nM): 102%
cell viability ([4]; 1 nM): 101%
cell viability ([4]; 10 nM): 101%
cell viability ([4]; 100 nM): 97.5%
cell viability ([4]; 1000 nM): 106%
cell viability ([4]; 10000 nM): 109%
cell viability ([5]; 1 nM): 97.9%
cell viability ([5]; 10 nM): 96.6%
cell viability ([5]; 100 nM): 93%
cell viability ([5]; 1000 nM): 98.5%
cell viability ([5]; 10000 nM): 108%
drug sensitivity score [6]: 0
drug sensitivity score [7]: 0
drug sensitivity score [8]: 0
drug sensitivity score [9]: 0
drug sensitivity score [10]: 0
relative viability EC50 [11]: > 10 µM
relative viability EC50 [12]: > 10 µM
relative viability EC50 [13]: > 10 µM
relative viability EC50 [14]: > 10 µM
relative viability EC50 [15]: > 10 µM

Cc1sc(C)c2c1CCC=C2c1c[nH]cn1 [TC-G-1000]
cell viability ([1]; 1 nM): 101%
cell viability ([1]; 10 nM): 96.8%
cell viability ([1]; 100 nM): 95.6%
cell viability ([1]; 1000 nM): 102%
cell viability ([1]; 10000 nM): 97%
cell viability ([2]; 1 nM): 106%
cell viability ([2]; 10 nM): 93.3%
cell viability ([2]; 100 nM): 100%
cell viability ([2]; 1000 nM): 99.2%
cell viability ([2]; 10000 nM): 94.6%
cell viability ([3]; 1 nM): 111%
cell viability ([3]; 10 nM): 108%
cell viability ([3]; 100 nM): 111%
cell viability ([3]; 1000 nM): 97%
cell viability ([3]; 10000 nM): 104%
cell viability ([4]; 1 nM): 102%
cell viability ([4]; 10 nM): 97.3%
cell viability ([4]; 100 nM): 102%
cell viability ([4]; 1000 nM): 97.2%
cell viability ([4]; 10000 nM): 102%
cell viability ([5]; 1 nM): 103%
cell viability ([5]; 10 nM): 96.4%
cell viability ([5]; 100 nM): 100%
cell viability ([5]; 1000 nM): 99.9%
cell viability ([5]; 10000 nM): 96.7%
drug sensitivity score [6]: 0
drug sensitivity score [7]: 0
drug sensitivity score [8]: 0
drug sensitivity score [9]: 0
drug sensitivity score [10]: 0
relative viability EC50 [11]: > 10 µM
relative viability EC50 [12]: > 10 µM
relative viability EC50 [13]: > 10 µM
relative viability EC50 [14]: > 10 µM
relative viability EC50 [15]: > 10 µM

COc1cccc2c1C(=O)c1c(O)c3c(c(O)c1C2=O)C[C@@](O)(C(=O)CO)C[C@@H]3O[C@H]1C[C@H](N)[C@H](O[C@@H]2CCCCO2)[C@H](C)O1 [pirarubicin]
cell viability ([1]; 1 nM): 98.9%
cell viability ([1]; 10 nM): 99.5%
cell viability ([1]; 100 nM): 99.4%
cell viability ([1]; 1000 nM): 84.6%
cell viability ([1]; 10000 nM): 1.1%
cell viability ([2]; 1 nM): 96.9%
cell viability ([2]; 10 nM): 92.4%
cell viability ([2]; 100 nM): 89.7%
cell viability ([2]; 1000 nM): 68.4%
cell viability ([2]; 10000 nM): 20.7%
cell viability ([3]; 1 nM): 104%
cell viability ([3]; 10 nM): 101%
cell viability ([3]; 100 nM): 87.4%
cell viability ([3]; 1000 nM): 38.3%
cell viability ([3]; 10000 nM): 0.8%
cell viability ([4]; 1 nM): 103%
cell viability ([4]; 10 nM): 92.7%
cell viability ([4]; 100 nM): 86.7%
cell viability ([4]; 1000 nM): 59.1%
cell viability ([4]; 10000 nM): 27.4%
cell viability ([5]; 1 nM): 102%
cell viability ([5]; 10 nM): 98.1%
cell viability ([5]; 100 nM): 96.7%
cell viability ([5]; 1000 nM): 73.5%
cell viability ([5]; 10000 nM): 40.6%
drug sensitivity score [6]: 8
drug sensitivity score [7]: 7.9
drug sensitivity score [8]: 13.5
drug sensitivity score [9]: 9.6
drug sensitivity score [10]: 6.3
relative viability EC50 [11]: 1.95 µM
relative viability EC50 [12]: 1.25 µM
relative viability EC50 [13]: 0.619 µM
relative viability EC50 [14]: 0.622 µM
relative viability EC50 [15]: 1.12 µM
